Results as given in PubChem BioAssay AID192 (DTP/NCI, 2004).
Where “and” joins values, the source holds several entries; their conditions need not be identical. Identical values can stand only once. Toxic doses and inconclusive results are not listed. Square brackets hold non-standard residues; d marks the D form. Peptide text beside a SMILES is read from it. ξ: configuration not given here. ξF = NC(Cc1ccccc1)C(=O)O

System: BDF1 mice, B16 melanoma ip, median survival T/C
Assay: NCI In Vivo Anticancer Drug Screen. Data for tumor model B16 Melanoma (intraperitoneal) in B6D2F1 (BDF1) mice
Conditions: endpoint: median survival time, higher = longer survival
In short: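 Values are ratios of treated (T) to vehicle-control (C) measurements of survival or tumor size in tumor-bearing mice.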

[1] = dose: 100.0 mg/kg/injection, schedule: Q01DX009 (ip), vehicle: Klucel (hydroxypropylcellulose) (HPC)
[2] = dose: 200.0 mg/kg/injection, schedule: Q01DX009 (ip), vehicle: Klucel (hydroxypropylcellulose) (HPC)
[3] = dose: 0.39 mg/kg/injection, schedule: Q01DX009 (ip), vehicle: Klucel (hydroxypropylcellulose) (HPC)
[4] = dose: 1.56 mg/kg/injection, schedule: Q01DX009 (ip), vehicle: Klucel (hydroxypropylcellulose) (HPC)
[5] = dose: 3.12 mg/kg/injection, schedule: Q01DX009 (ip), vehicle: Klucel (hydroxypropylcellulose) (HPC)
[6] = dose: 6.25 mg/kg/injection, schedule: Q01DX009 (ip), vehicle: Klucel (hydroxypropylcellulose) (HPC)
[7] = dose: 12.5 mg/kg/injection, schedule: Q01DX009 (ip), vehicle: Klucel (hydroxypropylcellulose) (HPC)
[8] = dose: 25.0 mg/kg/injection, schedule: Q01DX009 (ip), vehicle: Klucel (hydroxypropylcellulose) (HPC)
[9] = dose: 50.0 mg/kg/injection, schedule: Q01DX009 (ip), vehicle: Klucel (hydroxypropylcellulose) (HPC)
[10] = dose: 12.5 mg/kg/injection, schedule: Q01DX009 (ip), vehicle: saline with Tween-80
[11] = dose: 25.0 mg/kg/injection, schedule: Q01DX009 (ip), vehicle: saline with Tween-80
[12] = dose: 50.0 mg/kg/injection, schedule: Q01DX009 (ip), vehicle: saline with Tween-80
[13] = dose: 100.0 mg/kg/injection, schedule: Q01DX009 (ip), vehicle: saline with Tween-80
[14] = dose: 100.0 mg/kg/injection, schedule: Q01DX009 (ip), vehicle: saline
[15] = dose: 200.0 mg/kg/injection, schedule: Q01DX009 (ip), vehicle: saline
[16] = dose: 0.75 mg/kg/injection, schedule: Q01DX009 (ip), vehicle: saline
[17] = dose: 1.5 mg/kg/injection, schedule: Q01DX009 (ip), vehicle: saline
[18] = dose: 2.0 mg/kg/injection, schedule: Q01DX009 (ip), vehicle: saline
[19] = dose: 200.0 mg/kg/injection, schedule: Q01DX009 (ip), vehicle: saline with Tween-80

CCCCCCCCCCCCCCCCCC(=O)NCNC(=O)CCCCCCCCCCCCCCCCC
T/C (dose: 2.5 mg/kg/injection, schedule: Q01DX009 (ip), vehicle: saline with Tween-80): 102 % of control | T/C (dose: 4.68 mg/kg/injection, schedule: Q04DX003 (ip), vehicle: saline with Tween-80): 86 % of control | T/C (dose: 5.0 mg/kg/injection, schedule: Q01DX009 (ip), vehicle: saline with Tween-80): 100 % of control | T/C (dose: 9.37 mg/kg/injection, schedule: Q04DX003 (ip), vehicle: saline with Tween-80): 97 % of control | T/C (dose: 10.0 mg/kg/injection, schedule: Q01DX009 (ip), vehicle: saline with Tween-80): 87 % of control

COc1cc2ccc(Cc3nccc4cc(OC)c(OC)cc34)cc2cc1OC
T/C [1]: 93 % of control | T/C [2]: 93 % of control

C#C[C@]1(O)CC[C@H]2[C@@H]3CCc4cc(O)ccc4[C@H]3CC[C@@]21C
T/C (dose: 5.0 mg/kg/injection, schedule: Q02DX009 (ip), vehicle: Klucel (hydroxypropylcellulose) (HPC)): 86 % of control | T/C (dose: 10.0 mg/kg/injection, schedule: Q02DX009 (ip), vehicle: Klucel (hydroxypropylcellulose) (HPC)): 97 % of control | T/C (dose: 20.0 mg/kg/injection, schedule: Q02DX009 (ip), vehicle: Klucel (hydroxypropylcellulose) (HPC)): 87 % of control | T/C (dose: 40.0 mg/kg/injection, schedule: Q02DX009 (ip), vehicle: Klucel (hydroxypropylcellulose) (HPC)): 86 % of control and 96 % of control | T/C (dose: 80.0 mg/kg/injection, schedule: Q02DX009 (ip), vehicle: Klucel (hydroxypropylcellulose) (HPC)): 86 % of control

Nc1nc(N)c2cc(CNc3ccc(C(=O)NC(CC(=O)O)CC(=O)O)cc3)ccc2n1
T/C (dose: 0.04 mg/kg/injection, schedule: Q01DX009 (ip), vehicle: Klucel (hydroxypropylcellulose) (HPC)): 109 % of control | T/C (dose: 0.09 mg/kg/injection, schedule: Q01DX009 (ip), vehicle: Klucel (hydroxypropylcellulose) (HPC)): 95 % of control | T/C (dose: 0.19 mg/kg/injection, schedule: Q01DX009 (ip), vehicle: Klucel (hydroxypropylcellulose) (HPC)): 104 % of control | T/C [3]: 95 % of control | T/C (dose: 0.78 mg/kg/injection, schedule: Q01DX009 (ip), vehicle: Klucel (hydroxypropylcellulose) (HPC)): 95 % of control and 112 % of control | T/C [4]: 112 % of control | T/C [5]: 93 % of control | T/C [6]: 93 % of control | T/C [7]: 90 % of control and 101 % of control and 102 % of control | T/C [8]: 98 % of control and 124 % of control | T/C [9]: 99 % of control

CC(=Nc1ccccc1)C1=C(O)C(Cc2ccccc2)NC1=O (configuration not stated)
T/C [10]: 100 % of control | T/C [11]: 102 % of control | T/C [12]: 106 % of control | T/C [13]: 98 % of control and 100 % of control

NCC(=O)NCC(=O)NC(Cc1ccccc1)C(=O)O (stereo not drawn) (H-Gly-Gly-[ξF]-OH)
T/C [14]: 90 % of control | T/C (dose: 100.0 mg/kg/injection, schedule: Q04DX003 (ip), vehicle: saline): 92 % of control | T/C [15]: 90 % of control | T/C (dose: 200.0 mg/kg/injection, schedule: Q04DX003 (ip), vehicle: saline): 97 % of control | T/C (dose: 400.0 mg/kg/injection, schedule: Q01DX009 (ip), vehicle: saline): 93 % of control | T/C (dose: 400.0 mg/kg/injection, schedule: Q04DX003 (ip), vehicle: saline): 90 % of control

CC[N+]1(CC)CC[N+]2(CC1)CC[N+]1(CC[N+](CC)(CC)CC1)CC2
T/C (dose: 50.0 mg/kg/injection, schedule: Q01DX009 (ip), vehicle: saline): 94 % of control | T/C [14]: 100 % of control | T/C [15]: 94 % of control

CC1=CC(=O)C=CC1=Nc1ccc(N(C)C)cc1
T/C [11]: 91 % of control | T/C [12]: 90 % of control

Cc1ccc(S(=O)(=O)[O][Pb]([CH3])([CH3])[CH3])cc1
T/C (dose: 0.18 mg/kg/injection, schedule: Q01DX009 (ip), vehicle: saline): 97 % of control | T/C (dose: 0.37 mg/kg/injection, schedule: Q01DX009 (ip), vehicle: saline): 92 % of control | T/C [16]: 104 % of control | T/C [17]: 97 % of control

Cc1ccc(Nc2ccc([N+](=O)[O-])cc2[N+](=O)[O-])cc1C
T/C [1]: 98 % of control | T/C [2]: 97 % of control | T/C (dose: 400.0 mg/kg/injection, schedule: Q01DX009 (ip), vehicle: Klucel (hydroxypropylcellulose) (HPC)): 96 % of control

CN1C(=O)CCS(=O)(=O)C1c1ccc(Cl)cc1 (configuration not stated)
T/C (dose: 0.13 mg/kg/injection, schedule: Q01DX009 (ip), vehicle: saline): 109 % of control | T/C (dose: 0.25 mg/kg/injection, schedule: Q01DX009 (ip), vehicle: saline): 101 % of control | T/C (dose: 0.38 mg/kg/injection, schedule: Q01DX009 (ip), vehicle: saline): 95 % of control | T/C [3]: 100 % of control | T/C (dose: 0.5 mg/kg/injection, schedule: Q01DX009 (ip), vehicle: saline): 111 % of control | T/C [16]: 98 % of control | T/C (dose: 1.0 mg/kg/injection, schedule: Q01DX009 (ip), vehicle: saline): 115 % of control | T/C [17]: 101 % of control | T/C [4]: 109 % of control | T/C [18]: 104 % of control | T/C (dose: 3.0 mg/kg/injection, schedule: Q01DX009 (ip), vehicle: saline): 104 % of control | T/C [5]: 100 % of control | T/C [6]: 102 % of control

O=C(Nc1ccc(Cl)cc1)c1cccnc1
T/C [12]: 101 % of control | T/C [13]: 106 % of control | T/C [19]: 94 % of control

CN(C)c1nc(N)nc(Nc2ccc(Br)cc2)c1N=O
T/C [2]: 118 % of control

CC(=O)C1=C(C)NC(C)=C(C(C)=O)C1C
T/C [12]: 100 % of control | T/C [13]: 95 % of control | T/C [19]: 102 % of control

C1CC[N-]CC1.C1CC[N-]CC1.C1CC[N-]CC1.[Cl][Rh]([Cl])[Cl]
T/C [18]: 93 % of control | T/C (dose: 4.0 mg/kg/injection, schedule: Q01DX009 (ip), vehicle: saline): 99 % of control | T/C (dose: 6.25 mg/kg/injection, schedule: Q01DX009 (ip), vehicle: saline): 109 % of control | T/C (dose: 6.25 mg/kg/injection, schedule: Q01DX009 (ip), vehicle: suspension in saline): 103 % of control | T/C (dose: 8.0 mg/kg/injection, schedule: Q01DX009 (ip), vehicle: saline): 103 % of control | T/C [10]: 98 % of control | T/C (dose: 12.5 mg/kg/injection, schedule: Q01DX009 (ip), vehicle: suspension in saline): 103 % of control | T/C (dose: 16.0 mg/kg/injection, schedule: Q01DX009 (ip), vehicle: saline): 104 % of control | T/C [11]: 87 % of control | T/C (dose: 25.0 mg/kg/injection, schedule: Q01DX009 (ip), vehicle: suspension in saline): 110 % of control | T/C (dose: 32.0 mg/kg/injection, schedule: Q01DX009 (ip), vehicle: saline): 121 % of control | T/C [12]: 93 % of control | T/C (dose: 50.0 mg/kg/injection, schedule: Q01DX009 (ip), vehicle: suspension in saline): 110 % of control | T/C [13]: 94 % of control | T/C (dose: 100.0 mg/kg/injection, schedule: Q01DX009 (ip), vehicle: suspension in saline): 115 % of control | T/C [19]: 100 % of control | T/C (dose: 200.0 mg/kg/injection, schedule: Q01DX009 (ip), vehicle: suspension in saline): 112 % of control

COC(=O)C1C2CC3c4[nH]c5cc(OC)ccc5c4CCN3CC2CC(OC(=O)c2cc(OC)c(OC)c(OC)c2)C1OC (configuration not stated)
T/C [5]: 105 % of control | T/C [6]: 105 % of control | T/C [7]: 110 % of control | T/C [8]: 97 % of control | T/C [9]: 90 % of control

N#CCC(=O)O
T/C (dose: 18.75 mg/kg/injection, schedule: Q01DX009 (ip), vehicle: saline): 109 % of control | T/C (dose: 37.5 mg/kg/injection, schedule: Q01DX009 (ip), vehicle: saline): 97 % of control

CCOC(=O)C(CC)(CCC(C)C)C(=O)OCC
T/C [11]: 102 % of control | T/C [12]: 99 % of control | T/C [13]: 97 % of control

CCCCCCCCCCCCCCCCCC(=O)Nc1ccn(C2OC(CO)C(O)C2O)c(=O)n1 (configuration not stated)
T/C [10]: 154 % of control | T/C [11]: 165 % of control and 203 % of control

C[C@]12CC[C@H]3[C@@H](CCC4=C[C@@H](OC5OCC(OC6OC(CO)C(O)C(O)C6O)C(O)C5O)CC[C@@]43C=O)[C@@]1(O)CCC2C1=CC(=O)OC1 (some centres not stated)
T/C (dose: 1.25 mg/kg/injection, schedule: Q01DX009 (ip), vehicle: saline): 100 % of control | T/C (dose: 2.5 mg/kg/injection, schedule: Q01DX009 (ip), vehicle: saline): 105 % of control | T/C (dose: 5.0 mg/kg/injection, schedule: Q01DX009 (ip), vehicle: saline): 89 % of control
